Legend:
Assay in all cases: relative viability (nuclei count vs DMSO), 5 days (fraction); higher = more cells survive
EKVX = tested on: EKVX
Procedure, shortened: (§1)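 The day after seeding in 1536-well plates, lung cancer cell lines were treated by pin tool with a single drug, or with a fixed anchor-drug dose together with five library-drug doses (not always all listed) in √10 steps. After 5 days, a combined fix-and-stain solution (final 0.05% Triton X-100, 1% formaldehyde, 1 ug/ml Hoechst) was added. Nuclei counted on 4× images gave relative viability as treated counts over vehicle counts, reported as the median of duplicate plates.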

NCI-H520 = tested on: NCI-H520
Procedure, shortened: as §1

HCC-827 = tested on: HCC-827
Procedure, shortened: as §1

PC-14 = tested on: PC-14
Procedure, shortened: as §1

LK-2 = tested on: LK-2
Procedure, shortened: as §1

SW 1573 = tested on: SW 1573
Procedure, shortened: as §1

ABC-1 = tested on: ABC-1
Procedure, shortened: as §1

NCI-H661 = tested on: NCI-H661
Procedure, shortened: as §1

H3255 = tested on: H3255
Procedure, shortened: as §1

HCC-15 = tested on: HCC-15
Procedure, shortened: as §1

NCI-H2405 = tested on: NCI-H2405
Procedure, shortened: as §1

SK-MES-1 = tested on: SK-MES-1
Procedure, shortened: as §1

COR-L23 = tested on: COR-L23
Procedure, shortened: as §1

NCI-H2228 = tested on: NCI-H2228
Procedure, shortened: as §1

NCI-H1651 = tested on: NCI-H1651
Procedure, shortened: as §1

CAL-12T = tested on: CAL-12T
Procedure, shortened: as §1

PC-3 [JPC-3] = tested on: PC-3 [JPC-3]
Procedure, shortened: as §1

NCI-H1355 = tested on: NCI-H1355
Procedure, shortened: as §1

NCI-H1437 = tested on: NCI-H1437
Procedure, shortened: as §1

NCI-H322M = tested on: NCI-H322M
Procedure, shortened: as §1

NCI-H1563 = tested on: NCI-H1563
Procedure, shortened: as §1

NCI-H1650 = tested on: NCI-H1650
Procedure, shortened: as §1

NCI-H1734 = tested on: NCI-H1734
Procedure, shortened: as §1

RERF-LC-KJ = tested on: RERF-LC-KJ
Procedure, shortened: as §1

`Clc1ccc(Nc2nnc(Cc3ccncc3)c3ccccc23)cc1` [Vatalanib] + C[C@@H](Oc1cc(-c2cnn(C3CCNCC3)c2)cnc1N)c1c(Cl)ccc(F)c1Cl [Crizotinib] (partner 1 µM) was tested, and the relative viability (EKVX; first compound 0.04 µM) was 0.993, the relative viability (EKVX; first compound 0.1265 µM) was 0.9 and the relative viability (EKVX; first compound 0.4 µM) was 1.11. For the same molecule, the relative viability (EKVX; first compound 1.265 µM) was 1.02, the relative viability (EKVX; first compound 4 µM) was 0.921 and the relative viability (NCI-H520; first compound 0.04 µM) was 0.667. For the same molecule, the relative viability (NCI-H520; first compound 0.1265 µM) was 0.849, the relative viability (NCI-H520; first compound 0.4 µM) was 0.824 and the relative viability (NCI-H520; first compound 1.265 µM) was 0.614. For the same molecule, the relative viability (NCI-H520; first compound 4 µM) was 0.696, the relative viability (HCC-827; first compound 0.04 µM) was 0.845 and the relative viability (HCC-827; first compound 0.1265 µM) was 0.936. The relative viability (HCC-827; first compound 0.4 µM) was 0.943, the relative viability (HCC-827; first compound 1.265 µM) was 0.894 and the relative viability (HCC-827; first compound 4 µM) was 0.853. The relative viability (PC-14; first compound 0.04 µM) was 0.976, the relative viability (PC-14; first compound 0.1265 µM) was 0.916 and the relative viability (PC-14; first compound 0.4 µM) was 0.956. For the same molecule, the relative viability (PC-14; first compound 1.265 µM) was 0.825, the relative viability (PC-14; first compound 4 µM) was 0.865 and the relative viability (LK-2; first compound 0.04 µM) was 0.243. It also gave a relative viability (LK-2; first compound 0.1265 µM) of 0.232, a relative viability (LK-2; first compound 1.265 µM) of 0.252 and a relative viability (LK-2; first compound 4 µM) of 0.233. It also gave a relative viability (SW 1573; first compound 0.04 µM) of 0.918, a relative viability (SW 1573; first compound 0.1265 µM) of 0.721 and a relative viability (SW 1573; first compound 0.4 µM) of 0.942. For the same molecule, the relative viability (SW 1573; first compound 1.265 µM) was 0.627, the relative viability (SW 1573; first compound 4 µM) was 0.817 and the relative viability (ABC-1; first compound 0.04 µM) was 1.01. It also gave a relative viability (ABC-1; first compound 0.1265 µM) of 1, a relative viability (ABC-1; first compound 0.4 µM) of 1.37 and a relative viability (ABC-1; first compound 1.265 µM) of 0.89. It also gave a relative viability (ABC-1; first compound 4 µM) of 1.13, a relative viability (NCI-H661; first compound 0.04 µM) of 1.03 and a relative viability (NCI-H661; first compound 0.4 µM) of 0.986. For the same molecule, the relative viability (NCI-H661; first compound 1.265 µM) was 0.885, the relative viability (NCI-H661; first compound 4 µM) was 0.872 and the relative viability (H3255; first compound 0.04 µM) was 0.986. The relative viability (H3255; first compound 0.1265 µM) was 0.878, the relative viability (H3255; first compound 0.4 µM) was 0.718 and the relative viability (H3255; first compound 1.265 µM) was 0.802. For the same molecule, the relative viability (H3255; first compound 4 µM) was 0.85, the relative viability (HCC-15; first compound 0.04 µM) was 0.9 and the relative viability (HCC-15; first compound 0.1265 µM) was 0.768. The relative viability (HCC-15; first compound 0.4 µM) was 0.79, the relative viability (HCC-15; first compound 1.265 µM) was 0.812 and the relative viability (HCC-15; first compound 4 µM) was 0.841. It also gave a relative viability (NCI-H2405; first compound 0.04 µM) of 0.896, a relative viability (NCI-H2405; first compound 0.1265 µM) of 0.79 and a relative viability (NCI-H2405; first compound 0.4 µM) of 0.932. It also gave a relative viability (NCI-H2405; first compound 1.265 µM) of 0.816, a relative viability (NCI-H2405; first compound 4 µM) of 0.82 and a relative viability (SK-MES-1; first compound 0.04 µM) of 1.01. The relative viability (SK-MES-1; first compound 0.1265 µM) was 0.808, the relative viability (SK-MES-1; first compound 0.4 µM) was 1.14 and the relative viability (SK-MES-1; first compound 1.265 µM) was 0.927. For the same molecule, the relative viability (SK-MES-1; first compound 4 µM) was 0.925, the relative viability (COR-L23; first compound 0.04 µM) was 0.7 and the relative viability (COR-L23; first compound 0.1265 µM) was 0.558. For the same molecule, the relative viability (COR-L23; first compound 0.4 µM) was 0.668, the relative viability (COR-L23; first compound 1.265 µM) was 0.683 and the relative viability (COR-L23; first compound 4 µM) was 0.632. For the same molecule, the relative viability (NCI-H2228; first compound 0.04 µM) was 0.332, the relative viability (NCI-H2228; first compound 0.1265 µM) was 0.496 and the relative viability (NCI-H2228; first compound 0.4 µM) was 0.499. For the same molecule, the relative viability (NCI-H2228; first compound 1.265 µM) was 0.432, the relative viability (NCI-H2228; first compound 4 µM) was 0.496 and the relative viability (NCI-H1651; first compound 0.04 µM) was 0.865. It also gave a relative viability (NCI-H1651; first compound 0.1265 µM) of 0.839, a relative viability (NCI-H1651; first compound 0.4 µM) of 0.858 and a relative viability (NCI-H1651; first compound 1.265 µM) of 0.86. For the same molecule, the relative viability (NCI-H1651; first compound 4 µM) was 0.925, the relative viability (CAL-12T; first compound 0.04 µM) was 0.651 and the relative viability (CAL-12T; first compound 0.1265 µM) was 0.523. The relative viability (CAL-12T; first compound 0.4 µM) was 0.686, the relative viability (CAL-12T; first compound 1.265 µM) was 0.446 and the relative viability (CAL-12T; first compound 4 µM) was 0.746. It also gave a relative viability (PC-3 [JPC-3]; first compound 0.04 µM) of 0.978, a relative viability (PC-3 [JPC-3]; first compound 0.1265 µM) of 0.872 and a relative viability (PC-3 [JPC-3]; first compound 0.4 µM) of 0.967. The relative viability (PC-3 [JPC-3]; first compound 1.265 µM) was 0.937, the relative viability (PC-3 [JPC-3]; first compound 4 µM) was 0.949 and the relative viability (NCI-H1355; first compound 0.04 µM) was 1.05. For the same molecule, the relative viability (NCI-H1355; first compound 0.1265 µM) was 1.08, the relative viability (NCI-H1355; first compound 0.4 µM) was 1.13 and the relative viability (NCI-H1355; first compound 1.265 µM) was 0.886. For the same molecule, the relative viability (NCI-H1355; first compound 4 µM) was 0.953, the relative viability (NCI-H1437; first compound 0.04 µM) was 0.978 and the relative viability (NCI-H1437; first compound 0.1265 µM) was 0.934. For the same molecule, the relative viability (NCI-H1437; first compound 0.4 µM) was 1.02, the relative viability (NCI-H1437; first compound 1.265 µM) was 0.886 and the relative viability (NCI-H1437; first compound 4 µM) was 0.958. For the same molecule, the relative viability (NCI-H322M; first compound 0.04 µM) was 1.02, the relative viability (NCI-H322M; first compound 0.1265 µM) was 0.891 and the relative viability (NCI-H322M; first compound 0.4 µM) was 0.958. The relative viability (NCI-H322M; first compound 1.265 µM) was 0.858, the relative viability (NCI-H322M; first compound 4 µM) was 0.939 and the relative viability (NCI-H1563; first compound 0.04 µM) was 0.848. For the same molecule, the relative viability (NCI-H1563; first compound 0.1265 µM) was 0.754, the relative viability (NCI-H1563; first compound 0.4 µM) was 0.961 and the relative viability (NCI-H1563; first compound 1.265 µM) was 0.818. The relative viability (NCI-H1563; first compound 4 µM) was 0.859, the relative viability (NCI-H1650; first compound 0.04 µM) was 0.933 and the relative viability (NCI-H1650; first compound 0.1265 µM) was 0.997. The relative viability (NCI-H1650; first compound 0.4 µM) was 1.06, the relative viability (NCI-H1650; first compound 1.265 µM) was 0.92 and the relative viability (NCI-H1650; first compound 4 µM) was 1.05. The relative viability (NCI-H1734; first compound 0.04 µM) was 0.714, the relative viability (NCI-H1734; first compound 0.1265 µM) was 0.645 and the relative viability (NCI-H1734; first compound 0.4 µM) was 0.796. For the same molecule, the relative viability (NCI-H1734; first compound 1.265 µM) was 0.694, the relative viability (NCI-H1734; first compound 4 µM) was 0.57 and the relative viability (RERF-LC-KJ; first compound 0.04 µM) was 0.881. The relative viability (RERF-LC-KJ; first compound 0.1265 µM) was 0.766, the relative viability (RERF-LC-KJ; first compound 0.4 µM) was 0.88 and the relative viability (RERF-LC-KJ; first compound 1.265 µM) was 0.792. For the same molecule, the relative viability (RERF-LC-KJ; first compound 4 µM) was 0.799.

Reference: the supplement of paper PMC10307832
